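Step 1: Grow cells in 96-well plates. Step 2: Expose to compound for 48 hours at 5 concentrations. Step 3: Interpolate endpoints linearly; if unreached, use highest concentration. Abbreviation: GI50, concentration required for 50% inhibition of growth.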 The source made the active and inactive calls. No stated cut-off is given here; in the data, active = GI50 up to about 1.1 µM and inactive = higher.

Some test systems named below: HCT-116; HCT-15; KM12; M14; MCF7; MDA-MB-435; MDA-N; Malme-3M; NCI-H23; OVCAR-3; OVCAR-5; SF-295; SK-MEL-2; SNB-75; SR; DU-145; NCI-H522; RPMI-8226; SF-268; HL-60.
Assay in all cases: NCI tumour cell line growth inhibition, 48 h

Take `N/C(S)=N/N=C/c1ncccc1O`: the GI50 is 1.76 µM (inactive) in the experiment with HCT-116; 1.5 µM in the experiment on HCT-15; 2.6 µM (inactive) in the experiment on KM12; 1.95 µM (inactive) with M14; 0.723 µM (active) in the experiment with MCF7; 3.81 µM (inactive) in the experiment with MDA-MB-435. Also, the GI50 with MDA-N was 3.77 µM (inactive); with Malme-3M, 1.95 µM (inactive); in the experiment on NCI-H23, 0.597 µM (active); in the experiment on OVCAR-3, 1.88 µM (inactive); in the experiment with OVCAR-5, 3.1 µM (inactive); in the experiment on SF-295, 0.766 µM (active). The GI50 in the experiment on SK-MEL-2 was 6.84 µM (inactive); in the experiment with SNB-75, 1.94 µM (inactive); with SR, 3.01 µM (inactive).
Take `CO[C@@H]1[C@H](O)CC[C@]2(CO2)[C@H]1[C@@]1(C)O[C@@H]1CC=C(C)C`: the GI50 is 140 µM (inactive) in the experiment on DU-145; 84.3 µM (inactive) in the experiment with HCT-116; 46.1 µM in the experiment on HCT-15; 34.1 µM (inactive) with KM12; 180 µM (inactive) with M14; > 200 µM (inactive) in the experiment on MCF7. The GI50 with MDA-MB-435 was 95.5 µM (inactive); in the experiment with Malme-3M, 81.8 µM (inactive); with NCI-H23, > 200 µM (inactive); in the experiment with NCI-H522, > 200 µM (inactive); with OVCAR-3, 189 µM (inactive); in the experiment with OVCAR-5, > 200 µM (inactive). The GI50 is 185 µM (inactive) in the experiment on RPMI-8226; > 200 µM (inactive) in the experiment with SF-268; 11 µM (inactive) with SF-295; > 200 µM (inactive) with SK-MEL-2; > 200 µM (inactive) with SNB-75.
For the compound `Cc1c2cccc-2c2cc(O)c3ccccc3c2n1-c1ccc(N(C)C)cc1`, the GI50 is 15.7 µM (inactive) with HCT-116; 5.37 µM in the experiment with HCT-15; 19.9 µM (inactive) in the experiment on HL-60; 6.82 µM (inactive) in the experiment on KM12; 14.5 µM (inactive) in the experiment on M14; 0.395 µM (active) in the experiment on MCF7. Moreover, the GI50 is 13.1 µM (inactive) in the experiment on MDA-MB-435; 17 µM (inactive) with MDA-N; 15.6 µM (inactive) in the experiment on Malme-3M; 4.28 µM (inactive) with NCI-H23; 14.8 µM (inactive) in the experiment on NCI-H522; 6.46 µM (inactive) in the experiment with OVCAR-3. The GI50 in the experiment with OVCAR-5 was 10.9 µM (inactive); with RPMI-8226, 6.22 µM (inactive); in the experiment on SF-268, 15.9 µM (inactive); in the experiment with SF-295 it was 10.1 µM (inactive); in the experiment on SK-MEL-2, 16.7 µM (inactive); with SNB-75, 4.06 µM (inactive). Besides, the GI50 in the experiment on SR is 4.63 µM (inactive).
`CCCc1cc2c(cc1O)CC[C@@H]1[C@@H]2CC[C@]2(C)[C@@H](O)CC[C@@H]12`: the GI50 is 4.98 µM in the experiment on HCT-15; 12.6 µM (inactive) with HL-60; 9.12 µM (inactive) in the experiment with KM12; 10.5 µM (inactive) with M14; 2.29 µM (inactive) in the experiment on MDA-N; 13 µM (inactive) with Malme-3M. The GI50 was 14.1 µM (inactive) in the experiment on NCI-H23; 8.32 µM (inactive) in the experiment on NCI-H522; 11.8 µM (inactive) in the experiment on OVCAR-3; 19.5 µM (inactive) in the experiment on OVCAR-5; 13.2 µM (inactive) in the experiment with SF-268; 5.82 µM (inactive) in the experiment on SF-295. Further, the figures for the GI50 in the experiment on SK-MEL-2, with SNB-75 and with SR were 15.1 µM (inactive), 13.5 µM (inactive) and 3.61 µM (inactive), respectively.
As to `O=S(=O)(c1cc(Cl)ccc1Cl)N1CCN(c2ccc(Cl)c(Cl)c2)CC1`, the GI50 was > 100 µM (inactive) with DU-145; 34.6 µM (inactive) with HCT-116; over 100 µM in the experiment with HCT-15; > 100 µM (inactive) in the experiment on HL-60; 28.2 µM (inactive) in the experiment on KM12; 39.6 µM (inactive) in the experiment with M14. Further, the GI50 is > 100 µM (inactive) with MCF7; 37.7 µM (inactive) in the experiment on Malme-3M; 33.4 µM (inactive) in the experiment on NCI-H23; 18.5 µM (inactive) in the experiment with NCI-H522; 14.6 µM (inactive) with OVCAR-3; > 100 µM (inactive) in the experiment on OVCAR-5. Besides, the GI50 with RPMI-8226 was > 100 µM (inactive); in the experiment on SF-268, 27.3 µM (inactive); in the experiment on SF-295 it was 24.9 µM (inactive); in the experiment on SNB-75 it was 14 µM (inactive); in the experiment on SR it was > 100 µM (inactive).
For the compound `CN(C)/C=N/C1CCC(C(C)(C)C)CC1` (stereo not drawn), the GI50 in the experiment with DU-145 was 24.9 µM (inactive); in the experiment with HCT-116, 16 µM (inactive); with HCT-15, 17.2 µM; with HL-60, 15.3 µM (inactive); with M14, 17.6 µM (inactive); in the experiment on MCF7 it was 27.9 µM (inactive). In addition, the GI50 with MDA-MB-435 is 18.7 µM (inactive); in the experiment with Malme-3M, 18.4 µM (inactive); with NCI-H23, 17.8 µM (inactive); with NCI-H522, 16.6 µM (inactive); in the experiment on OVCAR-3 it was 14.5 µM (inactive); with OVCAR-5 it was 17.7 µM (inactive). Further, the GI50 with SF-268 was 28.4 µM (inactive); in the experiment with SF-295 it was 17.4 µM (inactive); with SK-MEL-2, 18.6 µM (inactive); with SNB-75, 19.5 µM (inactive).
With `Cc1[nH]c2ccccc2c1-c1cc(-c2cc(-c3c(C)[nH]c4ccccc34)nc(N)n2)nc(N)n1`, the GI50 in the experiment on HCT-116 was > 100 µM (inactive); in the experiment on HCT-15, over 100 µM; with HL-60 it was > 100 µM (inactive); in the experiment with KM12, > 100 µM (inactive); with M14, > 100 µM (inactive); with MCF7 it was > 100 µM (inactive). Also, the GI50 with MDA-MB-435 is > 100 µM (inactive); in the experiment with MDA-N, > 100 µM (inactive); in the experiment with Malme-3M it was > 100 µM (inactive); in the experiment with NCI-H23, > 100 µM (inactive); in the experiment with NCI-H522 it was 51.8 µM (inactive); in the experiment on OVCAR-3 it was > 100 µM (inactive). The GI50 was > 100 µM (inactive) in the experiment on OVCAR-5; > 100 µM (inactive) in the experiment with RPMI-8226; > 100 µM (inactive) in the experiment on SF-268; > 100 µM (inactive) in the experiment with SF-295; > 100 µM (inactive) with SK-MEL-2; 86.3 µM (inactive) in the experiment with SR.
As to `COc1ccc(CN=C(N)N)c2ccccc12`, the GI50 is 57.7 µM (inactive) in the experiment with DU-145; 24.6 µM (inactive) in the experiment on HCT-116; over 100 µM in the experiment on HCT-15; 23.8 µM (inactive) in the experiment on HL-60; 25.5 µM (inactive) in the experiment with KM12; 37.1 µM (inactive) in the experiment with M14. In addition, the GI50 is 36.7 µM (inactive) with MCF7; 38.5 µM (inactive) in the experiment on MDA-N; 17.1 µM (inactive) in the experiment on Malme-3M; 24.3 µM (inactive) with NCI-H23; 34.3 µM (inactive) in the experiment on NCI-H522; 42.9 µM (inactive) in the experiment on OVCAR-3. Besides, the GI50 was 22.8 µM (inactive) in the experiment on OVCAR-5; 31.6 µM (inactive) in the experiment with RPMI-8226; 12.1 µM (inactive) in the experiment on SF-268; 2.7 µM (inactive) with SF-295; 35.1 µM (inactive) with SK-MEL-2; 20.5 µM (inactive) in the experiment on SNB-75.
Consider `C#CCNC(CCCNC(=N)N)C(=O)O` (stereo not drawn), for which the GI50 with DU-145 was > 100 µM (inactive); in the experiment with HCT-116, > 100 µM (inactive); in the experiment with HCT-15, over 100 µM; in the experiment with HL-60 it was > 100 µM (inactive); in the experiment on KM12, > 100 µM (inactive); in the experiment on M14 it was > 100 µM (inactive). Also, the GI50 in the experiment with MDA-MB-435, in the experiment on Malme-3M, in the experiment with NCI-H23, with NCI-H522, in the experiment with OVCAR-3 and in the experiment on OVCAR-5 was > 100 µM (inactive) throughout. For the same compound, the GI50 in the experiment with RPMI-8226, in the experiment with SF-268, in the experiment on SF-295, in the experiment on SK-MEL-2, with SNB-75 and with SR was > 100 µM (inactive) in each case.

The values are drawn from ChEMBL document CHEMBL1201862, “PubChem BioAssay data set” (2004).
